Data taken from US9394297B2, “Amides as pim inhibitors” (AMGEN INC., priority 2012, dated 2016).
Like-named read-outs stand apart in the source and are kept apart here.

Columns and labels:
Pim-2 = Pim-2 (Homo sapiens (Human), UniProt Q9P1W9); test: Pim enzyme assay (HTRF, 96-well), Pim-2; format: biochemical; settings: full length recombinant Pim-2, biotinylated-BAD (S112) peptide, 10-point curve, 45 min RT, read-out: Pim-2 IC50 IP
Summary of the method: (§1)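 HTRF detection of biotinylated BAD (S112) phosphorylation by full-length recombinant His-tagged Pim-1 or Pim-2 in 60 mM Hepes pH 7.0, 0.05% BSA, 2 mM DTT at 22 °C: 2 h for Pim-1, 45 min for Pim-2. Stopped with EDTA; IC50 from 4-parameter logistic fit of percent of control.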

Pim-1 = Pim-1 (Homo sapiens (Human), UniProt P11309); test: Pim enzyme assay (HTRF, 96-well), Pim-1; format: biochemical; settings: full length recombinant Pim-1, biotinylated-BAD (S112) peptide, 10-point curve, 2 h RT, read-out: Pim-1 IC50 IP
Summary of the method: as §1

[1] = tested on: KMS-12-BM myeloma cell line; test: Pim KMS-12 cell assay (phospho-BAD S112 / total BAD, MSD); settings: Homo sapiens, KMS-12-BM
[2] = read-out: KMS-12-BM IC50 IP, KMS-12-BM cells, phospho-BAD (S112) vs total BAD, 1 hour 50 min with compound

Chain of Pim-2 (Q9P1W9 whole entry): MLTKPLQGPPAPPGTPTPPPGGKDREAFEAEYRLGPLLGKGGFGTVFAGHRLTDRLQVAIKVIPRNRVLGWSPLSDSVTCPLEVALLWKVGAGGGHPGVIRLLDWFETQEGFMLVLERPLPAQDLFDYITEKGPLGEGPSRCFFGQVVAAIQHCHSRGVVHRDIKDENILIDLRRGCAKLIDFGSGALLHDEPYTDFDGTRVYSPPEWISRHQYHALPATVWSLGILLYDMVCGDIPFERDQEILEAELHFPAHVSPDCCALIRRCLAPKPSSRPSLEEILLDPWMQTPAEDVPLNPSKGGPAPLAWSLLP
Chain of Pim-1 (P11309 whole entry): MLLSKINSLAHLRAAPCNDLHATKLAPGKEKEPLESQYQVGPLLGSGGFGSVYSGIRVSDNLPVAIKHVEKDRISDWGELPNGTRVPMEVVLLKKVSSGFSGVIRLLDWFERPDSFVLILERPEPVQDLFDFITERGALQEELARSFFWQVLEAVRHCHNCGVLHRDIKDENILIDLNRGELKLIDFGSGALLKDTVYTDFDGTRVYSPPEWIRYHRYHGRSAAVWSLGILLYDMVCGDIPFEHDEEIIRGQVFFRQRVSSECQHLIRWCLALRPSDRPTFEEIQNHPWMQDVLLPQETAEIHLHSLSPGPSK

| SMILES | IC50 (Pim-2) | IC50 (Pim-1) | IC50 ([1]; read-out: KMS-12-BM IC50 IP) | IC50 [1, 2] |
| --- | --- | --- | --- | --- |
| Cc1nc2cccc(-c3cc4c([nH]3)CCNC4=O)c2nc1NC1CCCCC1 [Example 132, 2-(3-(cyclohexylamino)-2-methylquinoxalin-5-yl)-6,7-dihydro-1H-pyrrolo[3,2-c]pyridin-4(5H)-one] | 4.9 nM | 5.3 nM | 143 nM |  |
| O=C1NCCc2[nH]c(-c3cccc4ccc(Nc5cccc(F)c5)nc34)cc21 [Example 45, 2-(2-((3-fluorophenyl)amino)-8-quinolinyl)-1,5,6,7-tetrahydro-4H-pyrrolo[3,2-c]pyridin-4-one] | 7.7 nM | 1.5 nM |  | 1450 nM |
| O=C1NCCc2[nH]c(-c3cccc4ccc(NC5CCCCC5)nc34)cc21 [Example 83, 2-(2-(cyclohexylamino)quinolin-8-yl)-6,7-dihydro-1H-pyrrolo[3,2-c]pyridin-4(5H)-one] | 15 nM | 2 nM | 2910 nM |  |
| Cc1cccc(C)c1Nc1ccc2cccc(-c3cc4c([nH]3)CCNC4=O)c2n1 [Example 102, 2-(2-((2,6-dimethylphenyl)amino)quinolin-8-yl)-6,7-dihydro-1H-pyrrolo[3,2-c]pyridin-4(5H)-one] | 73.9 nM | 7.6 nM | 10400 nM |  |
| O=C1NCCc2[nH]c(-c3cccc4ccc(N[C@H]5CCCNC5)nc34)cc21 [Example 123, (S)-2-(2-(piperidin-3-ylamino)quinolin-8-yl)-6,7-dihydro-1H-pyrrolo[3,2-c]pyridin-4(5H)-one] | 12 nM | 1 nM |  | 2510 nM |
| Cc1nc2cccc(-c3cc4c([nH]3)CCNC4=O)c2nc1NC1CC1 [Example 194, 2-(3-(cyclopropylamino)-2-methylquinoxalin-5-yl)-6,7-dihydro-1H-pyrrolo[3,2-c]pyridin-4(5H)-one] | 2 nM | 3.7 nM |  | 62.8 nM |
| Cc1nc2cccc(-c3cc4c([nH]3)CCNC4=O)c2nc1Nc1ccccn1 [Example 190, 2-(2-methyl-3-(pyridin-2-ylamino)quinoxalin-5-yl)-6,7-dihydro-1H-pyrrolo[3,2-c]pyridin-4(5H)-one] | 17.6 nM | 36.2 nM |  | 966 nM |
| O=C1NCCc2[nH]c(-c3cccc4ccc(Nc5c(F)cccc5Cl)nc34)cc21 [Example 7, 2-(2-((2-chloro-6-fluorophenyl)amino)quinolin-8-yl)-6,7-dihydro-1H-pyrrolo[3,2-c]pyridin-4(5H)-one] | 5.2 nM | 1 nM |  | 2740 nM |
| O=C1NCCc2[nH]c(-c3cccc4ccc(OC5CCCC5)nc34)cc21 [Example 80, 2-(2-(cyclopentyloxy)quinolin-8-yl)-6,7-dihydro-1H-pyrrolo[3,2-c]pyridin-4(5H)-one] | 30.5 nM | 7.4 nM |  | 14400 nM |
| CC1CNC(=O)c2cc(-c3cccc4ncc(Nc5ccccc5)nc34)[nH]c21 (racemic) [Example 187, rac-7-methyl-2-(3-(phenylamino)quinoxalin-5-yl)-6,7-dihydro-1H-pyrrolo[3,2-c]pyridin-4(5H)-one] | 4.3 nM | 1.9 nM |  | 1280 nM |
| O=C1NCCc2[nH]c(-c3cccc4ccc(Oc5ccccc5F)nc34)cc21 [Example 11, 2-(2-(2-fluorophenoxy)quinolin-8-yl)-6,7-dihydro-1H-pyrrolo[3,2-c]pyridin-4(5H)-one] | 10.3 nM | 6.1 nM |  | 7000 nM |
| O=C1NCCc2[nH]c(-c3cccc4ccc(Nc5ccccc5)nc34)cc21 [Example 2, 2-(2-(phenylamino)quinolin-8-yl)-6,7-dihydro-1H-pyrrolo[3,2-c]pyridin-4(5H)-one] | 8 nM | 1.6 nM | 708 nM |  |
| Cc1nc2cccc(-c3cc4c([nH]3)CCNC4=O)c2nc1Nc1ccccc1 [Example 183, 2-(2-methyl-3-(phenylamino)quinoxalin-5-yl)-6,7-dihydro-1H-pyrrolo[3,2-c]pyridin-4(5H)-one] | 1.6 nM | 1.5 nM |  | 165 nM |
| O=C1NCCc2[nH]c(-c3cccc4ccc(Oc5ccccc5)nc34)cc21 [Example 37, 2-(2-phenoxyquinolin-8-yl)-6,7-dihydro-1H-pyrrolo[3,2-c]pyridin-4(5H)-one] | 13.9 nM | 5.9 nM |  | 5530 nM |
| N[C@@H]1CCC[C@H](Nc2ccc3cccc(-c4cc5c([nH]4)CCNC5=O)c3n2)C1 (single isomer, unassigned) [Example 122, 2-(2-((cis-3-aminocyclohexyl)amino)quinolin-8-yl)-6,7-dihydro-1H-pyrrolo[3,2-c]pyridin-4(5H)-one] | 0.3 nM | 0.1 nM |  | 348 nM |
| O=C1NCCc2[nH]c(-c3cccc4ccc(N5CCOCC5)nc34)cc21 [Example 84, 2-(2-morpholinoquinolin-8-yl)-6,7-dihydro-1H-pyrrolo[3,2-c]pyridin-4(5H)-one] | 115 nM | 20.6 nM |  | 12200 nM |

| SMILES | IC50 (Pim-2) | IC50 (Pim-1) | IC50 ([1]; read-out: KMS-12-BM IC50 IP) | IC50 [1, 2] |
| --- | --- | --- | --- | --- |
| O=C1NCCc2[nH]c(-c3cccc4ncc(Oc5ccccc5)nc34)cc21 [Example 177, 2-(3-phenoxyquinoxalin-5-yl)-6,7-dihydro-1H-pyrrolo[3,2-c]pyridin-4(5H)-one] | 18.4 nM | 12.4 nM |  | 4660 nM |
| O=c1[nH]cnc2[nH]c(-c3cccc4ccc(Nc5ccccc5)nc34)cc12 [Example 16, 6-(2-(phenylamino)quinolin-8-yl)-3H-pyrrolo[2,3-d]pyrimidin-4(7H)-one] | 13.5 nM | 2.7 nM | 3850 nM |  |
| CCN(c1ccccc1)c1ccc2cccc(-c3cc4c([nH]3)CCNC4=O)c2n1 [Example 14, 2-(2-(ethyl(phenyl)amino)quinolin-8-yl)-6,7-dihydro-1H-pyrrolo[3,2-c]pyridin-4(5H)-one] | 6 nM | 1.1 nM |  | 2340 nM |
| O=C1NCCc2[nH]c(-c3cccc4ccc(NCc5ccccc5)nc34)cc21 [Example 21, 2-(2-(benzylamino)quinolin-8-yl)-6,7-dihydro-1H-pyrrolo[3,2-c]pyridin-4(5H)-one] | 21.6 nM | 2.8 nM |  | 4920 nM |
| CN(c1ccccc1)c1cnc2cccc(-c3cc4c([nH]3)CCNC4=O)c2n1 [Example 188, 2-(3-(methyl(phenyl)amino)quinoxalin-5-yl)-6,7-dihydro-1H-pyrrolo[3,2-c]pyridin-4(5H)-one] | 4.4 nM | 2.8 nM | 1010 nM |  |
| O=C1NCCc2[nH]c(-c3cccc4ccc(Oc5c(F)cccc5Cl)nc34)cc21 [Example 9, 2-(2-(2-chloro-6-fluorophenoxy)quinolin-8-yl)-6,7-dihydro-1H-pyrrolo[3,2-c]pyridin-4(5H)-one] | 8.6 nM | 4.6 nM |  | 6350 nM |
| O=C1NCCc2[nH]c(-c3cccc4ccc(Oc5cccc(F)c5)nc34)cc21 [Example 42, 2-(2-(3-fluorophenoxy)-8-quinolinyl)-1,5,6,7-tetrahydro-4H-pyrrolo[3,2-c]pyridin-4-one] | 9.1 nM | 3.6 nM |  | 3460 nM |
| Nc1cccc(Nc2ccc3cccc(-c4cc5c([nH]4)CCNC5=O)c3n2)c1 [Example 110, 2-(2-((3-aminophenyl)amino)quinolin-8-yl)-6,7-dihydro-1H-pyrrolo[3,2-c]pyridin-4(5H)-one] | 2.9 nM | 1.1 nM |  | 1130 nM |
| O=C1NCCc2[nH]c(-c3cccc4ncc(Nc5ccccc5)nc34)cc21 [Example 180, 2-(3-(phenylamino)quinoxalin-5-yl)-6,7-dihydro-1H-pyrrolo[3,2-c]pyridin-4(5H)-one] | 2.8 nM | 1.9 nM |  | 390 nM |
| Cc1cc2cccc(-c3cc4c([nH]3)CCNC4=O)c2nc1Nc1ccc(Br)cc1 [Example 106, 2-(2-((4-bromophenyl)amino)-3-methylquinolin-8-yl)-6,7-dihydro-1H-pyrrolo[3,2-c]pyridin-4(5H)-one] | 10.5 nM | 4.5 nM |  | 8440 nM |
| O=C1NCCc2[nH]c(-c3cccc4ccc(Nc5ccc(Cl)cc5)nc34)cc21 [Example 15, 2-(2-((4-chlorophenyl)amino)quinolin-8-yl)-6,7-dihydro-1H-pyrrolo[3,2-c]pyridin-4(5H)-one] | 20.4 nM | 4 nM | 3230 nM |  |
| Cc1cccc(Nc2ccc3cccc(-c4cc5c([nH]4)CCNC5=O)c3n2)c1 [Example 44, 2-(2-((3-methylphenyl)amino)-8-quinolinyl)-1,5,6,7-tetrahydro-4H-pyrrolo[3,2-c]pyridin-4-one] | 29.2 nM | 7.2 nM | 13100 nM |  |
| O=C1NCCn2cc(-c3cccc4ccc(Nc5cccnc5)nc34)cc21 [Example 166, 7-(2-(pyridin-3-ylamino)quinolin-8-yl)-3,4-dihydropyrrolo[1,2-a]pyrazin-1(2H)-one] | 2.2 nM | 1.1 nM |  | 4310 nM |
| Cc1nc2cccc(-c3cc4c([nH]3)CCNC4=O)c2nc1NC(C)C [Example 192, 2-(3-(isopropylamino)-2-methylquinoxalin-5-yl)-6,7-dihydro-1H-pyrrolo[3,2-c]pyridin-4(5H)-one] | 4.9 nM | 7.5 nM | 270 nM |  |
| O=c1[nH]ccc2[nH]c(-c3cccc4ccc(Nc5ccccc5Cl)nc34)cc12 [Example 107, 2-(2-((2-chlorophenyl)amino)quinolin-8-yl)-1H-pyrrolo[3,2-c]pyridin-4(5H)-one] | 32.2 nM | 5.2 nM |  | 15600 nM |
